Reference: the supplement of paper PMC8837787

The molecules below were run on Saccharomyces cerevisiae ABC16-Green Monster. Settings: 18 h; 30 °C; YPD.
Method: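 Growth inhibition of the drug-sensitive S. cerevisiae ABC16-Green Monster strain (16 ABC transporters deleted) in YPD at 30 °C for 18 h. […] dilution series […] in biological replicates; IC50 from OD600 (18 h minus 0 h) fitted by variable-slope nonlinear regression in GraphPad Prism. Library compounds were first screened at 150 µM, and only those with at least 70% inhibition went to dose-response; the rest are marked inactive.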

First: COc1ccc(Nc2nc(Nc3ccc(C)cc3)nc(Sc3nc4ccccc4[nH]3)n2)cc1 [CBR499]
Second: Cc1ccc(Cc2c(C)nn(-c3nc4ccccc4[nH]3)c2O)cc1 [CBR868]
The IC50 growth inhibition of the first is 2.3-fold lower: 2.31 µM for the first, 5.39 µM for the second.

First: CC(=O)c1ccc(-c2ccc(C(=O)N3CCCc4ccccc43)o2)cc1
Second: CN1CCN(c2ccccc2NC(=O)c2cccc(Oc3ccccc3)c2)CC1
The IC50 growth inhibition of the first is 1.9-fold lower: 52.4 µM for the first, 98.9 µM for the second.

OC1=C2C(=Nc3ccccc3SC2c2ccco2)c2ccccc21 (centres undefined) [GNF-Pf-4283] and O=C1C2=C(Nc3ccccc3SC2c2ccccc2F)c2ccccc21 (centres undefined) are within 1.5-fold of each other in IC50 growth inhibition: 11 µM for the first, 9.02 µM for the second.

Going from COc1cc(C2c3cc4c(cc3C(OC3OC5COC(C)OC5C(O)C3O)C3COC(=O)C23)OCO4)cc(OC)c1O (centres undefined) [Etoposide] to COc1cc(Nc2ncc(F)c(Nc3ccc4c(n3)NC(=O)C(C)(C)O4)n2)cc(OC)c1OC [Tamatinib besilate], the IC50 growth inhibition rises from 23.6 µM to > 75 µM.

Compared with CN1CCN(S(=O)(=O)c2ccc(-c3ccc4c(Nc5ncc(Cl)cn5)ccnc4c3)cc2)CC1, CN1CCN(CCCN2c3ccccc3Sc3ccc(Cl)cc32)CC1 [Prochlorperazine] is 1.5-fold lower in IC50 growth inhibition: 43.4 µM for the first, 28.6 µM for the second.

Compared with COCCNCC(O)Cn1c2ccc(Cl)cc2c2cc(Cl)ccc21 (centres undefined), CCc1c(C(=O)Nc2nc(C)cs2)cnn1-c1cccc(Cl)c1 is 2.8-fold higher in IC50 growth inhibition: 11 µM for the first, 30.5 µM for the second.

Compared with CCC(C)CC(C)CCCCCCCCC(=O)NC1CC(O)C(NCCN)NC(=O)C2C(O)CCN2C(=O)C(C(O)CCN)NC(=O)C(C(O)C(O)c2ccc(O)cc2)NC(=O)C2CC(O)CN2C(=O)C(C(C)O)NC1=O (centres undefined) [Caspofungin], O=C1NCN(c2ccccc2)C12CCN(CCCC(c1ccc(F)cc1)c1ccc(F)cc1)CC2 [Fluspirilene] is 760-fold higher in IC50 growth inhibition: 0.0305 µM for the first, 23.3 µM for the second.

CN(CC1COc2ccccc2O1)C(=O)Nc1nc2ccccc2s1 (centres undefined) and CN(C)c1cc(NC(=O)Nc2ccccc2)c2ccccc2n1 are within 1.5-fold of each other in IC50 growth inhibition: 48 µM for the first, 39.4 µM for the second.

FC(F)(F)c1ccc(N(c2cccnc2)C2CCN(c3ccc(C(F)(F)F)cn3)CC2)cc1 and FC(F)(F)c1cccc(-c2nc3c(NCc4ccncc4)nccc3[nH]2)c1 are within 1.5-fold of each other in IC50 growth inhibition: 40 µM for the first, 41.6 µM for the second.

Compared with Cc1cc(N(C)Cc2ccccc2Br)nc(N)n1, Cc1cc(Cl)ccc1OCc1nnc(-c2ccccn2)[nH]1 is 2.5-fold lower in IC50 growth inhibition: 52.6 µM for the first, 20.7 µM for the second.

COc1ccc(Oc2ccc([C@@H](C)N(C)c3ncc4c(N)nc(N)nc4n3)cc2)cc1 and COc1ccc(/C=C/c2ccc3c(Cl)cc(Cl)c(O)c3n2)cc1 are within 1.5-fold of each other in IC50 growth inhibition: 30.5 µM for the first, 22.3 µM for the second.

Cc1nc(C(=N)NOC(=O)c2c(-c3c(Cl)cccc3Cl)noc2C)cs1 and Cc1noc(C)c1C(=O)N1CCCC(c2[nH]c3c(C)cccc3c2-c2ccncc2)C1 (centres undefined) are within 1.5-fold of each other in IC50 growth inhibition: 21.2 µM for the first, 20.8 µM for the second.

Going from CCCCCCCCCCCCCCCCOP(=O)([O-])OCC[N+](C)(C)C [Miltefosine] to CCCCc1oc2ccccc2c1C(=O)c1cc(I)c(OCCN(CC)CC)c(I)c1 [Amiodarone], the IC50 growth inhibition falls from 9.3 µM to 5.72 µM (1.6-fold).

Going from O=CN(O)CCCP(=O)(O)O [Fosmidomycin] to CC(C=CC(=O)NO)=CC(C)C(=O)c1ccc(N(C)C)cc1 (centres undefined) [Trichostatin A], the IC50 growth inhibition falls from > 75 µM to 50.6 µM.

Going from O=C1C=CC(=O)N1c1ccc(C2CCCCC2)cc1 to COc1ccccc1N=C1C(=O)c2ccccc2C(O)=C1N1CCCCC1, the IC50 growth inhibition rises from 1.69 µM to 7.84 µM (4.6-fold).

First: Cc1ccc(CNc2ncnc3sccc23)cc1
Second: CC1COC(Cn2cncn2)(c2ccc(Oc3ccc(Cl)cc3)cc2Cl)O1 (centres undefined) [Difenoconazole]
The IC50 growth inhibition of the first is 4.2-fold higher: 13.4 µM for the first, 3.17 µM for the second.

CCCc1cc(N2CCN(C)CC2)n2ncc(-c3ccccc3)c2n1 and CCOC(=O)c1c(NC(=O)c2c(F)c(F)c(F)c(F)c2F)sc(C(N)=O)c1C are within 1.5-fold of each other in IC50 growth inhibition: 47 µM for the first, 47.8 µM for the second.
